Source: US6414222B1, “Gene combinations for herbicide tolerance in corn” (Regents of the University of Minnesota, priority 1993, dated 2002)

Key:
[1] = tested on: fatty acid synthesis in corn seedling chloroplasts; assay: [14C]acetate and [14C]pyruvate incorporation into fatty acids in isolated chloroplasts; format: biochemical, Corn (Z. mays L.); details: 10 minute assay time, mean of two experiments ± standard error
Protocol: Corn (Z. mays L., ‘B37×Oh43’) seeds were germinated in darkness for 96 hours in vermiculite in an incubation chamber maintained at 30° C., 80% RH. Seedlings were then transferred to a growth chamber with a 16 hour light (25° C.) and an 8 hour dark (20° C.) cycle, 90% relative humidity (RH). After greening 48 hours, seedlings were returned to the dark incubation chamber for 12 hours to deplete chloroplast starch reserves. Seedlings were harvested 6 days after planting. Pea (P. sativum L., ‘PI 9901-C’) seedlings were grown in vermiculite in a growth chamber with a 16 hour light (21° C.) and 8 hour dark (16° C.) cycle, 80% RH. Peas were harvested 10 to 13 days after planting. Black Mexican Sweet (BMS) corn suspension cultures were maintained in a supplemented Murashige-Skoog (MS) medium (C. E. Green, Hort. Sci., 12, 7-10 (1977)), and subcultured weekly by 20-fold dilution of the suspension culture into fresh medium.
Chloroplasts from corn and pea seedlings were isolated at 4° C. (K. Cline et al., J. Biol. Chem., 260, 3691-3696 (1985)). Seedlings (50 g of shoots) were homogenized in 200 ml buffer A (50 mM HEPES-NaOH pH 7.5, 330 mM sorbitol, 0.1% w/v BSA, 1 mM MgCl2, 1 mM MnCl2, 2 mM EDTA, 5 mM isoascorbate, 1.3 mM glutathione) in an omnimixer (five, 3-second bursts at full speed). The homogenate was filtered through six layers of cheesecloth and two layers of miracloth, and then centrifuged at 3000 g for 3 minutes with hand-braking. The pellet was gently resuspended in buffer A and layered onto a preformed linear Percoll gradient (50 mM HEPES-NaOH pH 7.5, 330 mM sorbitol, 1.9 mM isoascorbate, 1.08 mM glutathione, 0.1% w/v BSA, 50% Percoll) which was centrifuged at 3000 g for 20 minutes in a Sorvall HB-4 rotor. The lower band in the gradient, containing intact chloroplasts, was washed twice by gently resuspending it in 20 ml of buffer B (50 mM HEPES-NaOH, pH 7.5, and 330 mM sorbitol) followed by repelleting (3000 g, 5 minutes). The final pellet, consisting of intact chloroplasts, was resuspended in 2 to 3 ml of buffer B and stored on ice in the dark until use.
[^14C]acetate and [^14C]pyruvate were used as precursors to measure fatty acid biosynthesis in isolated chloroplasts (B. Liedvogel et al., Planta, 169, 481-489 (1986)). [^14C]acetate incorporation was assayed in a 0.5 ml-volume containing: 50 mM HEPES-NaOH (pH 7.5), 330 mM sorbitol, 5 mM KH2PO4, 10 mM NaHCO3, 1 mM MgCl2, 1 mM ATP, 0.1 mM CoA, 0.15 mM [^14C]acetate (3.33 mCi/mmol), and chloroplasts (20 to 50 μg chlorophyll). [^14C]pyruvate incorporation into fatty acids was assayed in the same medium except that it included 2 mM TPP, 1 mM NAD^+, 0.15 mM [^14C]-pyruvate (1.33 mCi/mmol), but no acetate. […] Aliquots (50 μl) were counted for radioactivity by liquid scintillation spectrometry.

[2] = tested on: cell line 2167-9/2160-154 H-1; assay: Callus herbicide tolerance, line H-1; format: cell-based, maize; details: cell line H-1
Protocol: (§1) Tolerant cell line 2167-9/2160-154 S-2 (“S-2”) was characterized to evaluate: (1) the magnitude of sethoxydim tolerance; (2) cross-tolerance of haloxyfop; and (3) the biochemical basis for the tolerance. Callus tissue from S-2 that had been maintained on 10 μM sethoxydim was transferred to media containing up to 100 μM sethoxydim. One-half gram of S-2 tissue was plated on a 7 cm filter paper as a lawn overlaying 50 ml agar-solidified culture medium containing 0, 0.5, 1.0, 2.0, 5.0, 10.0, 50.0 and 100 μM sethoxydim, and cultured for two weeks. Control cell line 2167-9/2160-154 was plated similarly on medium containing the same levels of sethoxydim. The control cell line growth after two weeks was inhibited 50% at 1 μM sethoxydim.
(§2) The tolerant callus cultures were characterized to determine the magnitude of sethoxydim and haloxyfop tolerance. Callus tissue from these lines was evaluated in experiments as described above in the characterization of line 2167-9/2160-154 S-2.

[3] = tested on: tolerant cell line 2167-9/2160-154 S-2; assay: Callus growth on herbicide medium, line S-2; format: cell-based, maize
Protocol: as §1

[4] = tested on: cell line 2167-9/2160-154 H-2; assay: Callus herbicide tolerance, line H-2; format: cell-based, maize; details: cell line H-2
Protocol: as §1, §2

CC(Oc1ccc(Oc2ncc(C(F)(F)F)cc2Cl)cc1)C(=O)O (stereo not shown) [Haloxyfop, 2-[4-[[3-chloro-5-(trifluoromethyl)-2-pyridinyl]oxy]phenoxy]-propanoic acid]
% Inhibition of [14C]acetate incorporation into fatty acids ([1]; Haloxyfop 1 μM): 89% | % Inhibition of [14C]pyruvate incorporation into fatty acids ([1]; Haloxyfop 1 μM): 99% | Fold increase in herbicide concentration that results in a 50% reduction in growth vs unselected control cell line [2]: 61 fold | Fold increase in herbicide concentration that results in a 50% reduction in growth vs unselected control cell line ([2]; listed as haloxyfop): ~60 fold | IC50 ([3]; Zea mays, callus growth, read-out: Herbicide concentration inhibiting growth of S-2): 650 nM | Fold increase in tolerance of S-2 versus control callus line (growth) ([3]; callus growth): ~30 fold | Fold increase in herbicide concentration that results in a 50% reduction in growth vs unselected control cell line [4]: 4 fold | Fold increase in herbicide concentration that results in a 50% reduction in growth vs unselected control cell line ([4]; listed as haloxyfop): four-fold increase

CCCC(=NOCC)C1=C(O)CC(CC(C)SCC)CC1=O (stereo not shown) [Sethoxydim, 2-[1-(ethoxyimino)-butyl]-5-[2-(ethylthio)propyl]-3-hydroxy-2-cyclohexen-1-one]
% Inhibition of [14C]acetate incorporation into fatty acids ([1]; Sethoxydim 10 μM): 90% | % Inhibition of [14C]pyruvate incorporation into fatty acids ([1]; Sethoxydim 10 μM): 98% | Fold increase in herbicide concentration that results in a 50% reduction in growth vs unselected control cell line [2]: 0 fold | Fold increase in herbicide concentration that results in a 50% reduction in growth vs unselected control cell line ([2]; listed as sethoxydim): Neither haloxyfop selected line showed a significant degree of sethoxydim tolerance | Growth of S-2 callus ([3]; 100 μM sethoxydim, cultured two weeks): not inhibited | Fold increase in tolerance of S-2 versus control callus line (growth) ([3]; callus growth): at least 100 fold | Fold increase in herbicide concentration that results in a 50% reduction in growth vs unselected control cell line [4]: 0 fold | Fold increase in herbicide concentration that results in a 50% reduction in growth vs unselected control cell line ([4]; listed as sethoxydim): Neither haloxyfop selected line showed a significant degree of sethoxydim tolerance
